The text below walks through data of patent publication US6469056B1, “Pharmaceutically active compounds, their preparation and use as ECE-inhibitors” (Abbott Laboratories, priority 1997, dated 2002).

SMILES strings stand for the structures.

What all share (type): biochemical
For assay [1], the target named is ACE (angiotensin converting enzyme) (Homo sapiens, UniProt P12821). The assay is described as follows: ACE inhibition.
The target in assay [2] is T1, recombinant human ECE from CHO cells (Homo sapiens, UniProt P42892).
T1 construct: made in house; host or cells: CHO cells
T1 sequence (P42892 1-770): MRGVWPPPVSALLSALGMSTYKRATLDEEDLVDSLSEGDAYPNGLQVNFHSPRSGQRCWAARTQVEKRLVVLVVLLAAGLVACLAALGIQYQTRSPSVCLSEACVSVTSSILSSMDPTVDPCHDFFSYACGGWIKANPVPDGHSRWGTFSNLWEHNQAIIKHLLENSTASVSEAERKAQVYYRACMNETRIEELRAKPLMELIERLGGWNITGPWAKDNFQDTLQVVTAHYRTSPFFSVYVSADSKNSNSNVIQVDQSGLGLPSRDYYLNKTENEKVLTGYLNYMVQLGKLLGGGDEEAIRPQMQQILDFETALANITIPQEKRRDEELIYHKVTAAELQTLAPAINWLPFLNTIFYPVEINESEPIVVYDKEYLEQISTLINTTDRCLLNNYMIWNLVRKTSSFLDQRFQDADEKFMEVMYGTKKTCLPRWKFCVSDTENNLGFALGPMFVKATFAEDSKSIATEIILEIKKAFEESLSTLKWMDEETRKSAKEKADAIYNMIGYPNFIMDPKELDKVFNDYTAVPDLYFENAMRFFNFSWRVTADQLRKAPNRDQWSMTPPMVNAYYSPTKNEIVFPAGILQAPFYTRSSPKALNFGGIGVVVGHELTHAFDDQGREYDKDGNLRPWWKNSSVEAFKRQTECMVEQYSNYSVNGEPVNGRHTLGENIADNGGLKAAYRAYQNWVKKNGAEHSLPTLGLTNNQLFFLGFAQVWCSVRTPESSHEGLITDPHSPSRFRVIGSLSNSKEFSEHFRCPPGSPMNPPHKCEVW
The assay is described as follows: ECE inhibitor test, IC50 determination (Big ET1 cleavage, HPLC). Particulars: Big ET1 substrate, 1 hour at 37° C., pH 7.2. As for the experimental part:
ECE Inhibitor Tests, IC50 Determinations
Inhibitors of endothelin converting enzyme (ECE) were tested using recombinant human ECE from CHO cells as described in Schmidt et al. (FEBS Letters 356, 1994: 238-243).
The enzyme preparations employed were, after membrane isolation and solubilization, further purified by Mono-Q chromatography and WGA lectin chromatography. The preparations obtained in this way contained no interfering foreign protease activities and had specific activities in the range 1-20 mU/mg. 5 μl of this enzyme solution were preincubated with 495 μl of test buffer (100 mM Pi, 500 mM NaCl, 0,1 mg/ml BSA pH 7.2) and with in each case 5 μl of appropriately concentrated solutions (10^−3 M, 10^−4 M, 10^−5 M etc.) of the inhibitors in the test buffer for 10 minutes. 50 μl aliquots were mixed with 5 μl of 2×10^−3 M Big ET1 solution (=Big Endothelin1) in 0.02% acetic acid. The mixtures were stopped after 1 hour at 37° C. by adding 150 μl of 0.5% TFA (=trifluoroacetic acid) in water, and centrifuged at 10000×g for 5 minutes, and the enzyme reaction was determined by measuring the endothelin formed by means of reversed phase HPLC as described in Takada et al. (Biochem. Biophys. Res. Comm. 176, 1991, 860), K. Ohnaka et al. (Biochem. Biophys. Res. Commun. 168, 1990, 1128). An inhibition plot was produced from the values of the inhibition at the various inhibitor concentrations, and the half-maximum inhibition (IC50) was read off as a measure of the strength of the inhibitory effect.

For assay [3], the target named is NEP 24.11 (neutral endopeptidase 24.11) (Homo sapiens, UniProt P08473). The assay is described as follows: NEP 24.11 inhibition.
Sequence of NEP 24.11 (neutral endopeptidase 24.11) (P08473 whole entry, species assumed): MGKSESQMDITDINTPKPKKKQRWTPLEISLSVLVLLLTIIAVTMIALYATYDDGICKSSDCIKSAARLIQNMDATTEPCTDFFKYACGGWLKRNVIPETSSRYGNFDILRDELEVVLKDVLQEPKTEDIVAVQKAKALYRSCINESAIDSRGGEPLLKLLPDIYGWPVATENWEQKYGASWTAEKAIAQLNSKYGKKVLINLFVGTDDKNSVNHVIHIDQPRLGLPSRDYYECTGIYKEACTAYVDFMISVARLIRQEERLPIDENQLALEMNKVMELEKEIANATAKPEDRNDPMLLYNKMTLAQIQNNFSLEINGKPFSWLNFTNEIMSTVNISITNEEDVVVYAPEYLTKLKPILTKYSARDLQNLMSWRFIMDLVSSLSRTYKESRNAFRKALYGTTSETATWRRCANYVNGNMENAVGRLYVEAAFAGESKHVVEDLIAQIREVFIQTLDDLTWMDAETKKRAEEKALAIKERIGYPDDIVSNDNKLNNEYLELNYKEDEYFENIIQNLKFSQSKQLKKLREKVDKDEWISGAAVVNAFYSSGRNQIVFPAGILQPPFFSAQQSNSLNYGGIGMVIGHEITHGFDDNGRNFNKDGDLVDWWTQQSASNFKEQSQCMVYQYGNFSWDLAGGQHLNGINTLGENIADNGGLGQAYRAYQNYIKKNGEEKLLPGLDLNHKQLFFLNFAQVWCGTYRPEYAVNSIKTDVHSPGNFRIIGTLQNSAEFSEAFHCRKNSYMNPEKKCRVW

Sequence of ACE (angiotensin converting enzyme) (P12821 30-1306, species assumed): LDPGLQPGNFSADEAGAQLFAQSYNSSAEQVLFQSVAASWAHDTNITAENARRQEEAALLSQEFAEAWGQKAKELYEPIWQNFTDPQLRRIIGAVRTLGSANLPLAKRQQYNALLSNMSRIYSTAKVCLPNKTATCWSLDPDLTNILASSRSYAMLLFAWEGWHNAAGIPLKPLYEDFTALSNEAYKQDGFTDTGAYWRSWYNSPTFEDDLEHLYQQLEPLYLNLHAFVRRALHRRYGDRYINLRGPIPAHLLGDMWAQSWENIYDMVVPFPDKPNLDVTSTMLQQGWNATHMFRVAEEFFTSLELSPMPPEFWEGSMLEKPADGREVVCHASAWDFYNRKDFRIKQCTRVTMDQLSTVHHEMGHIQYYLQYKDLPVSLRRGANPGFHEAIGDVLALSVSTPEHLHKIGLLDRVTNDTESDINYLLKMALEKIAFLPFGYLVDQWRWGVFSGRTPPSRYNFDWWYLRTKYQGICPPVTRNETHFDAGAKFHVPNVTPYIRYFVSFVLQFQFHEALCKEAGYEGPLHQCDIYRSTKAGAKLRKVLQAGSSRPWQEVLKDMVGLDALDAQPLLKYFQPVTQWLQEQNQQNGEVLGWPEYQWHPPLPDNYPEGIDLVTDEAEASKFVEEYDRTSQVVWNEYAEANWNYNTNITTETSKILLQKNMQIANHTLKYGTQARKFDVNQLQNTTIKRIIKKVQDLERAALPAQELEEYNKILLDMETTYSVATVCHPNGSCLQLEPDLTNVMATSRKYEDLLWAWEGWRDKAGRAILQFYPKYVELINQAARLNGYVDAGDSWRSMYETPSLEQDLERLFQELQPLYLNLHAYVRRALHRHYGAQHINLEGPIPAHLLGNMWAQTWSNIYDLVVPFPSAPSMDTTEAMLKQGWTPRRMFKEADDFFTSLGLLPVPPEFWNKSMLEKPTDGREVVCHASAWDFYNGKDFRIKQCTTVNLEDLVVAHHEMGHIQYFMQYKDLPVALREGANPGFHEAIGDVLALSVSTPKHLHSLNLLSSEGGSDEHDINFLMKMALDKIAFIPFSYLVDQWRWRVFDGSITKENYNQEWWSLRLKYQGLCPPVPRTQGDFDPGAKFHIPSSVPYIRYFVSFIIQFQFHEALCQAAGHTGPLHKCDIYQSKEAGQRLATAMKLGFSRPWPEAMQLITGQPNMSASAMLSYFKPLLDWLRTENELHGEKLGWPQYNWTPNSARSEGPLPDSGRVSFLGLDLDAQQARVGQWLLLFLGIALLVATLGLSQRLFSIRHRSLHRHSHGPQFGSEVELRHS

For `O=C(N[C@@H](Cc1ccccc1)CN(C(=O)c1ccc(Cl)s1)[C@@H](Cc1ccccc1)C(=O)O)OCC1c2ccccc2-c2ccccc21` [Compound 1a], the IC50 – broadly, the concentration that gives 50% inhibition – in assay [1] is more than 100 µM; in assay [2], 2 µM; in assay [3], more than 100 µM.

With `CC(C)(C)SSC[C@@H](CN(C(=O)c1ccc(Cl)s1)[C@@H](Cc1ccccc1)C(=O)O)NC(=O)OCC1c2ccccc2-c2ccccc21` [Compound 1b], the IC50 is more than 100 µM in assay [1], 3 µM in assay [2] and more than 100 µM in assay [3].

Regarding `O=C(N[C@@H](Cc1ccccc1)CN(C(=O)c1ccc2ccccc2c1)[C@@H](Cc1ccccc1)C(=O)O)OCC1c2ccccc2-c2ccccc21` [Compound 1e], the IC50 in assay [1] is more than 100 µM; in assay [2] it was 4 µM; in assay [3], more than 100 µM.
